Several values for one entry are separate records, joined by “and”; a condition that tells them apart may be missing. Identical values can stand only once. Entries after “also recorded” stand apart in the source; their conditions may differ.
What was measured:
[1] = tested on: cerebral cortical astrocytes intoxicated with ZnCl2; assay: MTS assay: survival of astrocytes following intoxication with ZnCl2; assay type: cell-based, mice
Description: Cell cultures were prepared as previously described (McCarthy KD, de Vellis J., J. Cell Biol., 85:890-902 (1980); Gozes I et al., J. Pharmacol. Exp. Ther., 257:959-66 (1991)). Newborn mice (Harlan Biotech Israel Ltd., Rehovot, Israel) were sacrificed by decapitation and the brain was removed. The cortex was dissected and meninges were removed. The tissue was minced with scissors and placed in Hank's balanced salts solution X1 (HBSS, Biological Industries, Beit Haemek, Israel), 15 mM HEPES Buffer pH 7.3 (Biological Industries, Beit Haemek, Israel) and 0.25% trypsin (Biological Industries, Beit Haemek, Israel) in an incubator at 37° C. 10% CO2 for 20 minutes. The cells were then placed in 8 ml of solution D1 containing 10% heat inactivated fetal calf serum (Biological Industries, Beit Haemek, Israel), 0.1% gentamycin sulphate solution (Biological Industries, Beit Haemek, Israel) and 0.1% penicillin-streptomycin-nystatin solution (Biological Industries, Beit Haemek, Israel) in Dulbecco's modified Eagle's medium (DMEM, Sigma, Rehovot, Israel). The cells were allowed to settle, and were then transferred to a new tube containing 2.5 ml of D1 and triturated using a Pasteur pipette. The process was repeated twice more. Once all the cells were suspended, cell density was determined using a hemocytometer (Neubauer improved, Germany) and 1×10^6 cells/15 ml D1 were inoculated into each 75 cm^2 flask (Corning, Corning, N.Y., USA). Cells were incubated at 37° C. 10% CO2. The medium was changed after 24 hours and cells were grown until confluent (one week).
The flasks containing the cerebral cortical astrocytes were shaken to dislodge residual neurons and oligodendrocytes that may be present. Flasks were then washed with 10 ml cold HBSSx1, HEPES15 mM. 5 ml versene-trypsin solution (BioLab, Jerusalem, Israel) was added to each flask and the flasks were incubated at room temperature for 5 minutes to remove astrocytes. The flasks were then shaken to dislodge the cells. The versene-trypsin solution was neutralized with 5 ml D1. The cell suspension was collected and centrifuged at 100 g for 10 minutes. The supernatant was removed and the cells resuspended in D1. The cells were plated in 96 well plates (Corning, Corning, N.Y., USA) (each flask to 2 plates) and incubated until confluent at 37° C. 10% CO2.
The survival of astrocytes following intoxication with ZnCl2 was tested using the MTS assay. One week after sub-culturing the astrocytes into 96-well plates, the astrocyte growth medium was aspirated and fresh medium containing 200μM ZnCl2 and ascending concentrations of NATLSHIHQ (SEQ ID NO:4) or STPTAIPQ (SEQ ID NO:6)(concentration range: 10^−16-10^−7M) was added to the cells. The cells were incubated for 4 hours in 10% CO2 at 37°C., followed by an MTS assay using Celltiter 96 Aqueous non-radioactive cell proliferation assay (Promega, Madison, WI, USA) which was performed according to the manufacturer's instructions and read in an ELISA plate reader at 490nm.

[2] = target: VQIVYK (peptide derived from third microtubule binding repeat of tau) (Homo sapiens, UniProt P10636); assay: In vitro VQIVYK (tau-like) aggregation assay, Thioflavin S; assay type: biochemical; details: peptides 10^−17 M -10^−9 M; 100 μM VQIVYK, polyglutamate 250 μM, MOPS pH 6.5, 7 days; compared with NAP
Description: VQIVYK aggregation: Tau is a highly soluble protein. The unfolded protein lacks a defined 3D structure. Its main role is stabilization of microtubules in neuronal axons. Tau contains three or four microtubule binding repeats. ^306VQIVYK^311 is a peptide derived from the beginning of the third microtubule binding repeat of tau, which is present in all tau variants.
In vitro aggregation assay was performed in the presence of polyglutamic acid (or heparin), VQIVYK aggregates were further detected by Thioflavin S (excitation 485 nm and emission 535) with emission intensity greatly increasing.
First, different concentrations of polyglutamic acid (0,100 μM, 250 μM, 400 μM) VQIVYK and either […] (NH4Ac) 50 mM pH 6.5 or MOPS 20 mM pH 6.5 and Thioflavin S 5 μM were mixed together and incubated at room temperature. The extent of aggregation was read at excitation 485 nm and emission 535 nm using the infinite 200 system with the Magellan program.
In order to avoid reading self peptide aggregation as VQIVYK aggregation, for each peptide concentration, the fluorescence of the peptide solution without VQIVYK was subtracted from the fluorescence of each peptide concentration containing VQIVYK.

[3] = tested on: rTg(tauP301L)4510 mouse (Tau-Tg); assay: Morris water maze in Tau transgenic mice; assay type: in vivo; details: Tau-Tg female mice, intranasal NAT 2 μg/5 μl/mouse/day; p=0.039
Description: The mouse model, used in the current study, was previously described (Ramsden et al., (2005) J Neurosci, 25, 10637-10647). The rTg(tauP301L)4510 mouse (designated as Tau-Tg below) expresses the human 4-repeat Tau with the P301L mutation (4RON) associated with frontotemporal dementia and Parkinsonism linked to chromosome 17.
The experiment included three groups: Tau-Tg female mice, 10-month-old, treated by intranasal administration of NAT 2 μg/5 μl/mouse/day (n=5) or vehicle (SW/mouse/day) (n=6), and as control, non-Tg female littermates treated by vehicle (SW/mouse/day) (n=7).
NAT was dissolved in a vehicle solution, in which each milliliter include 7.5 mg of NaCl, 1.7 mg of citric acid monohydrate, 3 mg of disodium phosphate dehydrate, and 0.2 mg of benzalkonium chloride solution (50%). 5 μl of NAT or vehicle solution (DD) were administered intranasally.
Treatment started at 9 months of age and continued daily for a period of 5 weeks. At each test NAT was applied 1 h before the test begun.
Each mouse was placed in a pool of water that is colored opaque with powdered non-fat milk, where it must swim to a hidden escape platform. […]
Experimental procedure: Mice were treated with NAT or vehicle and then habituated for 1 hour in the experiment room. […] The time required for reaching the platform in each trial and the path lengths were measured. […]

NATLSIHQ (synthetic NAP-like peptide)
effective concentrations on astrocyte survival: Astrocytes (200 μM ZnCl2) ([1]; MTS assay, 4 hours, tested 10^−16-10^−7M, significance vs negative control in cell): 10^−12 M and 10^−8 M and 10^−7 (p < 0.0005) M and 10^−10 (p < 0.05) M
activity in neuroprotection assay ([1]; astrocytes, ZnCl2): active
efficacy compared between peptides ([1]; survival of astrocytes): greater than that of STPTAIPQ
inhibition of VQIVYK (tau) aggregation [2]: superior to NAP; also recorded: superior effect than NAPVSIPQ
improvement in learning: latency to find the hidden platform, first day vs fifth day, second daily trial [3]: Significant improvement

Source: patent US8324166B2, “Neuroprotection using NAP-like and SAL-like peptide mimetics” (Ramot at Tel-Aviv University, Ltd., priority 2007, dated 2012)
